From PubChem BioAssay AID2060489 (Molecular Pharmacology Branch, DTP, NCI, 2025)

Tested on: 922993-354-T-J3-PDC complex spheroids, viability
Test: Anticancer human tumor 922993-354-T-J3-PDC patient-derived endometrial carcinoma cell line growth inhibition [GQUAD]
Settings: for IC50: curve of first compound; for viability, T/C: stronger effect = lower value
Procedure, shortened: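 Tumor cells were grown as complex spheroids with HUVEC endothelial cells and mesenchymal stem cells as stroma. G-quadruplex stabilizers were combined with targeted agents over half-log dilutions from near the clinical Cmax, or from 10 microM.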

[1] = second compound 0.0316 µM, first compound 0.0316 µM
[2] = second compound 0.0316 µM, first compound 0.1 µM
[3] = second compound 0.0316 µM, first compound 0.316 µM
[4] = second compound 0.0316 µM, first compound 1 µM
[5] = second compound 0.0316 µM, first compound 3.16 µM
[6] = second compound 0.0316 µM, first compound 10 µM
[7] = second compound 0.1 µM, first compound 0.0316 µM
[8] = second compound 0.1 µM, first compound 0.1 µM
[9] = second compound 0.1 µM, first compound 0.316 µM
[10] = second compound 0.1 µM, first compound 1 µM
[11] = second compound 0.1 µM, first compound 3.16 µM
[12] = second compound 0.1 µM, first compound 10 µM
[13] = second compound 0.316 µM, first compound 0.0316 µM
[14] = second compound 0.316 µM, first compound 0.1 µM
[15] = second compound 0.316 µM, first compound 0.316 µM
[16] = second compound 0.316 µM, first compound 1 µM
[17] = second compound 0.316 µM, first compound 3.16 µM
[18] = second compound 0.316 µM, first compound 10 µM
[19] = second compound 1 µM, first compound 0.0316 µM
[20] = second compound 1 µM, first compound 0.1 µM
[21] = second compound 1 µM, first compound 0.316 µM
[22] = second compound 1 µM, first compound 1 µM
[23] = second compound 1 µM, first compound 3.16 µM
[24] = second compound 1 µM, first compound 10 µM
[25] = second compound 3.16 µM, first compound 0.0316 µM
[26] = second compound 3.16 µM, first compound 0.1 µM
[27] = second compound 3.16 µM, first compound 0.316 µM
[28] = second compound 3.16 µM, first compound 1 µM
[29] = second compound 3.16 µM, first compound 3.16 µM
[30] = second compound 3.16 µM, first compound 10 µM
[31] = second compound 10 µM, first compound 0.0316 µM
[32] = second compound 10 µM, first compound 0.1 µM
[33] = second compound 10 µM, first compound 0.316 µM
[34] = second compound 10 µM, first compound 1 µM
[35] = second compound 10 µM, first compound 3.16 µM
[36] = second compound 10 µM, first compound 10 µM
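Note: spheroids exposed to compounds for seven days.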
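Throughout, for viability, T/C: 100% = DMSO vehicle control viability.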

With `CC1COCCN1c1cc(-c2ccnn2C)c2ccnc(-c3ccn[nH]3)c2n1` (stereo unspecified) + CN(C)c1ccc(Nc2c3ccc(NC(=O)CCN4CCCC4)cc3nc3cc(NC(=O)CCN4CCCC4)ccc23)cc1 the IC50 (second compound 0.0316 µM) was 260 nM, the IC50 (second compound 0.1 µM) was 190 nM and the IC50 (second compound 0.316 µM) was 175 nM. The IC50 (second compound 1 µM) was 278 nM, the IC50 (second compound 3.16 µM) was 176 nM and the IC50 (second compound 10 µM) was 396 nM. The viability, T/C [1] was 98.4%, the viability, T/C [2] was 73.4% and the viability, T/C [3] was 50.3%. It also gave a viability, T/C [4] of 16.7%, a viability, T/C [5] of 18% and a viability, T/C [6] of 20%. The viability, T/C [7] was 110%, the viability, T/C [8] was 68.2% and the viability, T/C [9] was 36.1%. It also gave a viability, T/C [10] of 18.2%, a viability, T/C [11] of 20.2% and a viability, T/C [12] of 12.3%. The viability, T/C [13] was 105%, the viability, T/C [14] was 58.1% and the viability, T/C [15] was 46.9%. It also gave a viability, T/C [16] of 16.8%, a viability, T/C [17] of 16.5% and a viability, T/C [18] of 19.6%. For the same compound, the viability, T/C [19] was 84.8%, the viability, T/C [20] was 64.2% and the viability, T/C [21] was 54.2%. The viability, T/C [22] was 22.9%, the viability, T/C [23] was 19.1% and the viability, T/C [24] was 21.4%. The viability, T/C [25] was 119%, the viability, T/C [26] was 52.7% and the viability, T/C [27] was 54.3%. For the same compound, the viability, T/C [28] was 18.2%, the viability, T/C [29] was 21.3% and the viability, T/C [30] was 22.4%. The viability, T/C [31] was 130%, the viability, T/C [32] was 79.8% and the viability, T/C [33] was 65.2%. It also gave a viability, T/C [34] of 25.6%, a viability, T/C [35] of 21.2% and a viability, T/C [36] of 19.6%.
`Cn1ncnc1[C@H]1c2n[nH]c(=O)c3cc(F)cc(c23)N[C@@H]1c1ccc(F)cc1` + CN(C)c1ccc(Nc2c3ccc(NC(=O)CCN4CCCC4)cc3nc3cc(NC(=O)CCN4CCCC4)ccc23)cc1 was tested, and the IC50 (second compound 0.0316 µM) was greater than 316 nM, the IC50 (second compound 0.1 µM) was greater than 316 nM and the IC50 (second compound 0.316 µM) was 222 nM. The IC50 (second compound 1 µM) was greater than 316 nM, the IC50 (second compound 3.16 µM) was greater than 316 nM and the IC50 (second compound 10 µM) was greater than 316 nM. For the same compound, the viability, T/C (second compound 0.0316 µM, first compound 0.000999 µM) was 98.4%, the viability, T/C (second compound 0.0316 µM, first compound 0.00316 µM) was 83.2% and the viability, T/C (second compound 0.0316 µM, first compound 0.00999 µM) was 68.9%. The viability, T/C [1] was 79.6%, the viability, T/C (second compound 0.0316 µM, first compound 0.0999 µM) was 95.2% and the viability, T/C [3] was 60.4%. For the same compound, the viability, T/C (second compound 0.1 µM, first compound 0.000999 µM) was 111%, the viability, T/C (second compound 0.1 µM, first compound 0.00316 µM) was 93.7% and the viability, T/C (second compound 0.1 µM, first compound 0.00999 µM) was 98.1%. It also gave a viability, T/C [7] of 90.1%, a viability, T/C (second compound 0.1 µM, first compound 0.0999 µM) of 91.8% and a viability, T/C [9] of 55.4%. For the same compound, the viability, T/C (second compound 0.316 µM, first compound 0.000999 µM) was 97.4%, the viability, T/C (second compound 0.316 µM, first compound 0.00316 µM) was 85.7% and the viability, T/C (second compound 0.316 µM, first compound 0.00999 µM) was 91.7%. The viability, T/C [13] was 111%, the viability, T/C (second compound 0.316 µM, first compound 0.0999 µM) was 84.4% and the viability, T/C [15] was 34.7%. For the same compound, the viability, T/C (second compound 1 µM, first compound 0.000999 µM) was 93.6%, the viability, T/C (second compound 1 µM, first compound 0.00316 µM) was 108% and the viability, T/C (second compound 1 µM, first compound 0.00999 µM) was 96%. It also gave a viability, T/C [19] of 92.1%, a viability, T/C (second compound 1 µM, first compound 0.0999 µM) of 109% and a viability, T/C [21] of 60.1%. For the same compound, the viability, T/C (second compound 3.16 µM, first compound 0.000999 µM) was 78%, the viability, T/C (second compound 3.16 µM, first compound 0.00316 µM) was 83.5% and the viability, T/C (second compound 3.16 µM, first compound 0.00999 µM) was 109%. It also gave a viability, T/C [25] of 106%, a viability, T/C (second compound 3.16 µM, first compound 0.0999 µM) of 105% and a viability, T/C [27] of 72.2%. For the same compound, the viability, T/C (second compound 10 µM, first compound 0.000999 µM) was 108%, the viability, T/C (second compound 10 µM, first compound 0.00316 µM) was 118% and the viability, T/C (second compound 10 µM, first compound 0.00999 µM) was 123%. It also gave a viability, T/C [31] of 107%, a viability, T/C (second compound 10 µM, first compound 0.0999 µM) of 98.5% and a viability, T/C [33] of 83%.
`O=C(c1cc(Cc2n[nH]c(=O)c3ccccc23)ccc1F)N1CCN(C(=O)C2CC2)CC1` + CN(C)c1ccc(Nc2c3ccc(NC(=O)CCN4CCCC4)cc3nc3cc(NC(=O)CCN4CCCC4)ccc23)cc1 gave an IC50 (second compound 0.0316 µM) greater than 10000 nM, an IC50 (second compound 0.1 µM) greater than 10000 nM and an IC50 (second compound 0.316 µM) greater than 10000 nM. It also gave an IC50 (second compound 1 µM) greater than 10000 nM, an IC50 (second compound 3.16 µM) greater than 10000 nM and an IC50 (second compound 10 µM) greater than 10000 nM. For the same compound, the viability, T/C [1] was 103%, the viability, T/C [2] was 105% and the viability, T/C [3] was 94.2%. For the same compound, the viability, T/C [4] was 86.5%, the viability, T/C [5] was 89.8% and the viability, T/C [6] was 106%. It also gave a viability, T/C [7] of 115%, a viability, T/C [8] of 81.9% and a viability, T/C [9] of 91.9%. It also gave a viability, T/C [10] of 86%, a viability, T/C [11] of 94.9% and a viability, T/C [12] of 106%. The viability, T/C [13] was 89.5%, the viability, T/C [14] was 84.3% and the viability, T/C [15] was 115%. For the same compound, the viability, T/C [16] was 87.3%, the viability, T/C [17] was 91.2% and the viability, T/C [18] was 78.5%. For the same compound, the viability, T/C [19] was 83.7%, the viability, T/C [20] was 86.5% and the viability, T/C [21] was 87.8%. For the same compound, the viability, T/C [22] was 74.7%, the viability, T/C [23] was 97.5% and the viability, T/C [24] was 107%. The viability, T/C [25] was 84.2%, the viability, T/C [26] was 105% and the viability, T/C [27] was 110%. For the same compound, the viability, T/C [28] was 75.5%, the viability, T/C [29] was 120% and the viability, T/C [30] was 93.7%. It also gave a viability, T/C [31] of 110%, a viability, T/C [32] of 128% and a viability, T/C [33] of 109%. It also gave a viability, T/C [34] of 99.4%, a viability, T/C [35] of 133% and a viability, T/C [36] of 132%.
